Holding throughout (format): in vivo
Experiment [1] relates to Wheat plants (Variety AWC 13). Nature of the experiment: Foliar treatment of wheat, foliar and root dry biomass (Example 5). The conditions noted are these: foliar treatment at Zadoks GS 15-20, 30 days after application, mean of 10 plants. The source says:
Wheat plants (Variety AWC 13) were given a foliar treatment of 6-oxo-1,4,5,6-tetrahydropyridazine-3-carboxylic acid(THP) or 1-methyl 6-oxo-1,4,5,6 tetrahydropyridazine-3-carboxylic acid (MTHP) and their foliar and root dry biomass determined 30 days after application. The foliar applications were applied at approximately at Zadoks GS 15-20 (see FIG. 1) and assessed 30 days later at Zadoks GS 22-24 (also shown in FIG. 1).

Experiment [2] relates to Wheat. Nature of the experiment: Wheat seed treatment, field grown, root biomass (Example 7). The settings on record: untreated 0.66. As for the experimental part: Wheat seeds were treated with 1-methyl 6-oxo-1,4,5,6 tetrahydropyridazine-3-carboxylic acid treated plants to examine the impact on root biomass for field grown plants. Wheat seeds were treated with 1-methyl 6-oxo-1,4,5,6 tetrahydropyridazine-3-carboxylic acid and field grown. The plants from seeds treated with 1-methyl 6-oxo-1,4,5,6 tetrahydropyridazine-3-carboxylic acid had larger root biomass (0.84 g dry weight/plant) compared with plants from untreated seeds (0.66 g dry weight/plant).

Experiment [3] has as its system Field grown wheat plants (Var: AWC 13). Nature of the experiment: Foliar treatment of field grown wheat (Example 6). The settings on record: foliar treatment at Zadoks GS 25-26, 100 g in 200 L water, mean of 10 plants. As for the experimental part: Field grown wheat plants (Var: AWC 13) were given foliar treatment at Zadoks GS 25-26 (FIG. 1) of 6-oxo-1,4,5,6 tetrahydropyridazine-3-carboxylic acid (THP) or 1-methyl 6-oxo-1,4,5,6 tetrahydropyridazine-3-carboxylic acid (MTHP) both at 100 g in 200 L water plus 0.25% Nouryon wetter. Plants were grown under standard UK wheat growing cultural practice (https://andb.org.uk/wheatgg). Yield was assessed at harvest.

Experiment [4] has as its system Winter wheat variety AWC 13. Nature of the experiment: Wheat seed treatment, greenhouse, root biomass (Example 1). The conditions noted are these: seed treatment 10g per 1 ton of seed; greenhouse 21° C; 30 days after planting; untreated 0.65. As for the experimental part: Wheat seeds were treated with 6-oxo-1,4,5,6 tetrahydropyridazine-3-carboxylic acid (THP) and treated plants to examine the impact on shoot and root biomass. Winter wheat variety AWC 13 seeds were treated with either 6-oxo-1,4,5,6-tetrahydropyridazine-3-carboxylic acid (THP) or 1-methyl 6-oxo-1,4,5,6 tetrahydropyridazine-3-carboxylic acid (MTHP) at an effective rate of 10g diluted in 2 L water plus 0.25% Nouryon wetter and applied to 1 ton of seed. These seed were planted in coarse river sand and grown in a greenhouse under ambient light at the greenhouse at 21° C. Plants were irrigated every other day with water containing 50% strength Hoaglands solution. Plants were assessed for emergence and biomass accumulation 30 days after planting. The plants from seeds treated with 6-oxo-1,4,5,6-tetrahydropyridizin-3-carboxylic acid or 1-methyl 6-oxo-1,4,5,6 tetrahydropyridazine-3-carboxylic acid had larger root biomasses (0.83, 0.85 g, dry weight/plant) compared with plants from untreated seeds (0.65 g dry weight/plant).

The test system of experiment [5] is wheat plants (Variety Skyfall). Nature of the experiment: Foliar treatment of greenhouse grown wheat, foliar and root biomass (Example 4). The settings on record: foliar treatment, 30 days later, Zadocks growth stage 22-24. As for the experimental part:
Wheat, corn and pepper seeds were treated with 6-oxo-1,4,5,6-tetrahydropyridizine-3-carboxylic acid (THP) using the same methodology and growth conditions as described in example 1 and the resulting plants were also treated with a light foliar cover spray using an electric hand-held sprayer. (100 g in 200 L water plus 0.25% Nouryon wetter) of 6-oxo-1,4,5,6 tetrahydropyridazine-3-carboxylic acid (30 days post emergence (wheat at Zadoks GS 14 (see FIG. 1), maize at V2, Pepper at 3-4 leaf stage) and then assessed for root and shoot biomass 45 days later. At 75 days post planting the plants were assessed for root and shoot biomass as measured with dry weight. Greenhouse grown wheat plants (Variety […]) were given foliar treatment of 1-methyl 6-oxo-1,4,5,6 tetrahydropyridazine-3-carboxylic acid (MTHP) or 6-oxo-1,4,5,6 tetrahydropyridazine-3-carboxylic acid (THP), utilizing the same methodology as in example 2. Foliar and root biomass were determined 30 days later at Zadocks growth stage 22-24.

Take `CN1N=C(C(=O)O)CCC1=O` [MTHP, 1-methyl 6-oxo-1,4,5,6 tetrahydropyridazine-3-carboxylic acid]: the “Dry Weight Shoot” value in experiment [1] (Con 0.47) is on record as 0.98; in experiment [3] (Con 0.47) it was 0.98; in experiment [5] (Con 0.55) it was 0.7 g. For the same compound, the “Dry Weight Root” value is on record as 2.06 in experiment [1] (Con 0.65), 2.06 in experiment [3] (Con 0.65) and 1.64 g in experiment [5] (Con 1.03). The root biomass in experiment [2] is 0.84 g dry weight/plant; in experiment [4], 0.85 g, dry weight/plant.

For the origin of these results see US11800869B2, “Use of 6-oxo-1,4,5,6-tetrahydropyridazine-3-carboxylic acid, 1-methyl 6-oxo-1,4,5,6-tetrahydropyridazine-3-carboxylic acid and 1-alkyl-6-oxo-1,4,5,6-tetrahydropyridazine-3-carboxylic acid for improving growth performance in plants” (Advanced Crop Chem LLP, priority 2020, dated 2023).
